Assay results from the supplement of paper PMC10307832.

Key:
Experiment in all cases: relative viability (nuclei count vs DMSO), 5 days (fraction); higher = more cells survive
RU-SKI 43 + Tozasertib = compound: CC[C@@H](C)CNCC(=O)N1CCC2=C([C@@H]1COC3=CC=CC(=C3)C)C=CS2 [RU-SKI 43] + Cc1cc(Nc2cc(N3CCN(C)CC3)nc(Sc3ccc(NC(=O)C4CC4)cc3)n2)n[nH]1 [Tozasertib] (partner 0.1 µM)
Procedure, shortened: (§1)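 Lung cancer cell lines in 1536-well plates were dosed by pin tool the day after seeding, either with one drug alone or with a fixed anchor-drug dose plus five library-drug doses (not always all listed) in √10 steps. After 5 days, cells were fixed and their nuclei stained in one step (final 0.05% Triton X-100, 1% formaldehyde, 1 ug/ml Hoechst), then counted on 4× images. Relative viability is the nuclei count in treated wells divided by that in vehicle wells. Values are medians of duplicate plates.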

MK-8033 + AZD7762 = compound: Cn1cc(-c2cnc3ccc4ccc(CS(=O)(=O)NCc5ccccn5)cc4c(=O)c3c2)cn1 [MK-8033] + NC(=O)Nc1cc(-c2cccc(F)c2)sc1C(=O)N[C@H]1CCCNC1 [AZD7762] (partner 0.2 µM)
Procedure, shortened: as §1

Irinotecan + Tozasertib = compound: CCc1c2c(nc3ccc(OC(=O)N4CCC(N5CCCCC5)CC4)cc13)-c1cc3c(c(=O)n1C2)COC(=O)[C@]3(O)CC [Irinotecan] + Cc1cc(Nc2cc(N3CCN(C)CC3)nc(Sc3ccc(NC(=O)C4CC4)cc3)n2)n[nH]1 [Tozasertib] (partner 0.1 µM)
Procedure, shortened: as §1

Irinotecan + Luminespib = compound: CCc1c2c(nc3ccc(OC(=O)N4CCC(N5CCCCC5)CC4)cc13)-c1cc3c(c(=O)n1C2)COC(=O)[C@]3(O)CC [Irinotecan] + CCNC(=O)c1noc(-c2cc(C(C)C)c(O)cc2O)c1-c1ccc(CN2CCOCC2)cc1 [Luminespib] (partner 0.01 µM)
Procedure, shortened: as §1

Cell Line	relative viability (RU-SKI 43 + Tozasertib; first compound 0.1 µM)	relative viability (RU-SKI 43 + Tozasertib; first compound 0.3162 µM)	relative viability (RU-SKI 43 + Tozasertib; first compound 1 µM)	relative viability (RU-SKI 43 + Tozasertib; first compound 3.162 µM)	relative viability (RU-SKI 43 + Tozasertib; first compound 10 µM)	relative viability (MK-8033 + AZD7762; first compound 0.02 µM)	relative viability (MK-8033 + AZD7762; first compound 0.06325 µM)	relative viability (MK-8033 + AZD7762; first compound 0.2 µM)	relative viability (MK-8033 + AZD7762; first compound 0.6325 µM)	relative viability (MK-8033 + AZD7762; first compound 2 µM)	relative viability (Irinotecan + Tozasertib; first compound 0.6325 µM)	relative viability (Irinotecan + Tozasertib; first compound 2 µM)	relative viability (Irinotecan + Tozasertib; first compound 6.325 µM)	relative viability (Irinotecan + Tozasertib; first compound 20 µM)	relative viability (Irinotecan + Luminespib; first compound 0.6325 µM)	relative viability (Irinotecan + Luminespib; first compound 2 µM)	relative viability (Irinotecan + Luminespib; first compound 6.325 µM)	relative viability (Irinotecan + Luminespib; first compound 20 µM)
NCI-H1666	0.495	0.596	0.571	0.525	0.435	0.839	0.771	0.814	0.873	0.996	0.552	0.543	0.569	0.26	0.858	0.721	0.658	0.331
HARA	0.125	0.0842	0.118	0.111	0.108	0.471	0.268	0.263	0.303	0.438	0.0659	0.12	0.107	0.103	0.0995	0.29	0.147	0.111
NCI-H661	0.345	0.349	0.345	0.335	0.365	–	–	–	–	–	0.372	0.372	0.469	0.333	0.848	0.822	0.41	0.195
NCI-H2087	0.264	0.233	0.294	0.225	0.225	1.43	1.32	1.22	1.3	1.22	0.184	0.239	0.36	0.192	0.158	0.183	0.2	0.261
LC-2-ad	0.424	0.442	0.459	0.424	0.405	0.832	0.783	0.78	0.843	0.827	0.439	0.437	0.343	0.233	0.685	0.542	0.337	0.233
NCI-H2405	0.73	0.705	0.713	0.701	0.629	0.807	0.734	0.638	0.701	0.742	–	0.605	0.354	0.246	–	0.606	0.312	0.262
HCC-44	0.962	–	0.903	1.02	0.87	1.04	1.04	0.994	1.06	1.02	–	1.17	0.377	0.308	–	0.456	0.215	0.225
NCI-H3122	0.372	0.416	0.495	0.392	0.369	0.931	0.886	0.965	1.06	0.977	0.461	0.339	0.2	0.0585	0.0615	0.114	0.0849	0.109
LU99A	0.255	0.234	0.279	0.202	0.227	0.522	0.27	0.367	0.458	0.317	0.257	0.223	0.153	0.225	0.174	0.184	0.206	0.207
ABC-1	0.16	0.172	0.18	0.166	0.185	0.86	0.709	0.475	0.874	1.06	–	0.236	0.211	0.114	–	0.528	0.352	0.269
H3255	0.721	0.726	0.292	0.76	0.489	0.932	0.724	0.793	0.788	0.899	0.513	0.501	0.375	0.437	0.435	0.707	0.385	0.448
HCC-827	0.435	0.523	0.592	0.426	0.368	0.259	–	0.196	0.207	0.238	0.318	0.307	0.249	0.175	0.289	0.501	0.165	0.104
NCI-H1734	0.238	0.217	0.276	0.258	0.267	0.544	0.361	0.522	0.572	0.54	–	0.279	0.198	0.33	–	0.203	0.222	0.353
NCI-H838	0.243	0.242	0.273	0.258	0.254	0.904	0.92	0.945	0.901	0.862	0.283	0.491	0.23	0.242	0.23	0.262	0.213	0.266
NCI-H1437	0.362	0.34	0.443	0.379	0.38	1.07	1.18	1.06	1.1	1.11	0.339	0.387	0.312	0.218	0.955	0.723	0.4	0.338
NCI-H1915	0.435	0.516	0.38	0.469	0.4	0.671	0.627	0.684	0.681	0.711	0.312	0.27	0.192	0.173	0.346	0.36	0.149	0.132
SK-MES-1	0.9	1.14	1.04	0.924	0.754	–	–	–	–	–	0.659	0.473	0.248	0.151	0.818	0.521	0.324	0.234
NCI-H2342	0.489	0.528	0.502	0.441	0.516	0.636	0.438	0.454	0.454	0.646	0.488	0.528	0.445	0.372	0.756	0.676	0.572	0.485
NCI-H1650	0.381	0.374	0.38	0.427	0.303	–	–	–	–	–	–	0.423	0.366	0.211	–	0.212	0.277	0.271
NCI-H647	0.262	0.261	0.227	0.231	0.262	0.59	0.452	0.408	0.471	0.549	0.24	0.294	0.151	0.0868	0.152	0.212	0.157	0.119
NCI-H1944	0.251	0.27	0.257	0.251	0.23	0.549	0.377	0.525	0.497	0.561	0.222	0.202	0.167	0.135	0.557	0.312	0.167	0.149

Cell Line	relative viability (RU-SKI 43 + Tozasertib; first compound 0.1 µM)	relative viability (RU-SKI 43 + Tozasertib; first compound 0.3162 µM)	relative viability (RU-SKI 43 + Tozasertib; first compound 1 µM)	relative viability (RU-SKI 43 + Tozasertib; first compound 3.162 µM)	relative viability (RU-SKI 43 + Tozasertib; first compound 10 µM)	relative viability (MK-8033 + AZD7762; first compound 0.02 µM)	relative viability (MK-8033 + AZD7762; first compound 0.06325 µM)	relative viability (MK-8033 + AZD7762; first compound 0.2 µM)	relative viability (MK-8033 + AZD7762; first compound 0.6325 µM)	relative viability (MK-8033 + AZD7762; first compound 2 µM)	relative viability (Irinotecan + Tozasertib; first compound 0.6325 µM)	relative viability (Irinotecan + Tozasertib; first compound 2 µM)	relative viability (Irinotecan + Tozasertib; first compound 6.325 µM)	relative viability (Irinotecan + Tozasertib; first compound 20 µM)	relative viability (Irinotecan + Luminespib; first compound 0.6325 µM)	relative viability (Irinotecan + Luminespib; first compound 2 µM)	relative viability (Irinotecan + Luminespib; first compound 6.325 µM)	relative viability (Irinotecan + Luminespib; first compound 20 µM)
NCI-H23	0.394	0.393	0.347	0.455	0.297	0.302	0.231	0.215	–	0.249	0.24	0.256	0.235	0.218	0.228	0.394	0.332	0.241
NCI-H1792	–	–	–	–	–	0.582	0.502	0.617	0.7	0.515	–	–	–	–	0.726	0.491	0.34	0.321
HCC-78	0.395	0.569	0.432	0.406	0.318	0.712	0.517	0.719	0.557	0.566	0.411	0.356	0.21	0.0831	–	–	–	–
NCI-H358	0.109	0.106	0.0941	0.103	0.0859	0.541	0.347	0.431	0.428	0.458	0.104	0.141	0.145	0.128	0.285	0.152	0.151	0.143
NCI-H520	0.456	0.422	0.428	0.401	0.408	–	–	–	–	–	0.446	0.514	0.445	0.427	0.249	0.257	0.256	0.303
BEN	0.502	0.426	0.546	0.495	0.509	0.82	0.634	0.76	0.599	0.788	0.378	0.499	0.447	0.34	0.231	0.374	0.176	0.294
A-427	0.226	0.165	0.23	0.21	0.196	0.791	0.634	0.692	0.775	0.728	–	0.159	0.216	0.182	–	0.574	0.306	0.166
EMC-BAC-2	0.295	0.235	0.262	0.296	0.249	1.12	0.979	1	1.01	1.09	0.263	0.269	0.259	0.406	0.681	0.407	0.347	0.375
NCI-H1648	–	–	0.428	0.484	0.4	0.6	–	0.533	0.702	0.769	0.39	0.346	0.402	0.291	–	–	–	–
NCI-H2023	0.32	0.438	0.516	0.424	0.218	–	–	–	–	–	0.355	0.408	0.205	0.104	0.467	0.256	0.127	0.0843
COR-L23	0.18	0.179	0.188	0.164	0.176	–	–	–	–	–	0.161	0.225	0.176	0.105	0.235	0.36	0.223	0.165
NCI-H1703	–	–	–	–	–	0.109	0.117	0.124	0.108	0.12	–	–	–	–	–	–	–	–
NCI-H1563	–	–	–	–	–	–	–	–	–	–	–	–	–	–	0.608	0.269	0.497	0.524
NCI-H2228	0.256	0.264	0.184	0.249	0.255	–	–	–	–	–	0.259	0.31	0.348	0.287	0.14	0.177	0.318	0.276
NCI-H1623	0.447	0.42	0.71	0.386	0.399	–	–	–	–	–	0.343	0.34	0.227	0.227	0.412	0.312	0.279	0.239
SK-LU-1	0.331	0.365	0.322	0.305	0.287	–	–	–	–	–	0.315	0.295	0.26	0.285	0.202	0.241	0.244	0.236
SW 1573	0.209	0.22	0.204	0.123	0.196	–	–	–	–	–	0.152	0.311	0.183	0.155	0.232	0.269	0.195	0.148
COR-L 105	0.317	0.252	0.32	0.339	0.332	–	–	–	–	–	0.346	0.373	0.458	0.273	0.578	0.677	0.421	0.411
NCI-H2009	0.725	0.896	0.727	0.64	0.504	–	–	–	–	–	0.599	0.566	0.334	0.13	0.863	0.486	0.25	0.252
HCC-366	0.098	0.0997	0.124	0.132	0.0872	0.367	0.231	0.228	0.291	0.256	0.0963	0.109	0.0553	0.0875	–	–	–	–
